This is an account of results in patent US20150056273A1 (National Taiwan University of Science and Technology, priority 2013, published 2015).

Series [1] in a line: penetration-through experiments with different microbubble sizes, agar tissue simulator. The class given is in vitro ADME. The conditions noted are these: 1 minute, 0.25 wt % Evans blue, microbubbles 2×10^8 particles/ml.
Source text: The percutaneous penetration experiments with different microbubble diameters are also been made. […] A skin tissue simulator 20 is formed of 0.3 wt % agarose gel (agar gel). The mechanical oscillation wave source may be an ultrasound probe 40. The ultrasound probe 40 is mounted on the dropper rack 22 and the ultrasound probe 40 is set at a distance of about 5 mm from the tissue stimulator 20. The conductive gel 35 is disposed on the probe 40 so that the conductive gel 35 is located apart from the tissue stimulator 20 with a distance of about 3 mm. The perfusion zone 33 is placed above the tissue stimulator 20 and the conductive gel 30 is located outside of the perfusion zone 33.
And the dye for observing the penetration depth in the skin tissue simulator is Evans blue which mixed with water to form a 0.25 wt % dye solution.
The surface of the tissue stimulator is rinsed three times (1000 μl). The control group utilized the saline solution of 0.25 wt % Evans blue dye. […] After the dye placed in the perfusion zone for a predetermined time, the penetration depth of the dye of the tissue stimulator was observed by the microscope and the results were processed by MATLAB program to calculate the dye penetration depth.
In the following experiments, different parameters were changed to find the best conditions for the penetration depth of the dye. […] And each group further had three experiments with the different ultrasound energy for 1 W/cm^2, 2 W/cm^2, and 3 W/cm^2. The ultrasound applied for 1 minute.
The nature of series [2]: percutaneous penetration experiments with different microbubble sizes, pigskin. The class given is in vitro ADME, pig. As to conditions: microbubbles 1 minute, then dye with ultrasound 15 minutes.
Source text: In another experiment, the skin tissue simulator formed form the agar gel is replaced by a pigskin of 2 mm thickness. The perfusion zone was placed on the pigskin for conducting the percutaneous penetration experiments, and the experimental system and the methods were similar to the penetration-through experiments of the agar stimulator. The experiment also use different ultrasound energy for 1 W/cm^2, 2 W/cm^2 and 3 W/cm^2, and the particle sizes of the microbubbles in the microbubble ultrasonic contrast agent are about 1.4 μm, 2.1 μm, and 3.5 μm. […] Then the microbubble ultrasonic contrast agent was washed away. The dye solution was placed in the perfusion zone and the ultrasound was applied for 15 minutes to force the dye diffused into the tissue simulator.

`Cc1cc(-c2ccc(/N=N/c3ccc4c(S(=O)(=O)O)cc(S(=O)(=O)O)c(N)c4c3O)c(C)c2)ccc1/N=N/c1ccc2c(S(=O)(=O)O)cc(S(=O)(=O)O)c(N)c2c1O` [U only, Evans blue]: the “penetration depth of the dye” value in series [1] (ultrasound 1 W (1 W/cm^2)) was 373 ± 23 μm; in series [1] (ultrasound 2 W (2 W/cm^2)) it was 354 ± 14 μm; in series [1] (ultrasound 3 W (3 W/cm^2)), 379 ± 20 μm; in series [2] (ultrasound 1 W (1 W/cm^2)), 12.78 μm; in series [2] (ultrasound 2 W (2 W/cm^2)) it was 14.17 μm; in series [2] (ultrasound 3 W (3 W/cm^2)), 15.5 μm.
